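Assay format: 96-well plates, 48-hour exposure. Definition used: TGI = concentration required for complete inhibition of growth.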
What was measured:
Assay in all cases: growth of human tumour cells (NCI), 48 h
[1] = system: 786-0 renal
[2] = system: SK-OV-3 ovarian
[3] = system: LOX IMVI melanoma
[4] = system: K-562 leukemia
[5] = system: HCC-2998 colon
[6] = system: SF-268 CNS
[7] = system: HT29 colon
[8] = system: KM12 colon
[9] = system: EKVX NSCLC
[10] = system: OVCAR-3 ovarian
[11] = system: NCI-H23 lung
[12] = system: HCT-116 colon
[13] = system: SNB-19 CNS
[14] = system: LXFL 529 NSCLC
[15] = system: MOLT-4 leukemia
[16] = system: UACC-257 melanoma
[17] = system: DU-145 prostate
[18] = system: MDA-MB-435
[19] = system: MDA-MB-231 breast
[20] = system: PC-3 prostate

Structure (SMILES)	TGI [1] [µM]	TGI [2] [µM]	TGI [3] [µM]	TGI [4] [µM]	TGI [5] [µM]	TGI [6] [µM]	TGI [7] [µM]	TGI [8] [µM]	TGI [9] [µM]	TGI [10] [µM]	TGI [11] [µM]	TGI [12] [µM]	TGI [13] [µM]	TGI [14] [µM]	TGI [15] [µM]	TGI [16] [µM]	TGI [17] [µM]	TGI [18] [µM]	TGI [19] [µM]	TGI [20] [µM]
COC(=O)C(=O)C(C(=O)OC)C(=O)C(=O)Nc1cc(Cl)c(Cl)cc1Cl (stereo unspecified)	> 100	> 100	> 100	> 100	> 100	> 100	> 100	> 100	> 100	> 100	> 100	75.8	> 100	> 100	> 100	> 100	–	–	–	–
CC(C)C1COC(c2ccc3ccccc3c2-c2c(O[Si](C)(C)C(C)(C)C)ccc3ccccc23)=N1 (stereo unspecified)	32.4	34.5	45.5	31.9	28.9	34.7	29	35.7	35.3	31.5	30.7	–	29.2	28.7	32	34.1	–	–	–	–
CCOC(=O)Nn1c(C)cc(C(=O)OC)c1C	> 100	> 100	> 100	> 100	> 100	> 100	> 100	> 100	> 100	> 100	> 100	> 100	> 100	> 100	> 100	> 100	–	–	–	–
COc1ccc2c(c1)OC(c1ccccc1O)CC2=O (stereo unspecified)	> 100	–	–	> 100	> 100	> 100	> 100	> 100	> 100	96.8	> 100	> 100	> 100	71.5	> 100	> 100	–	–	–	–
C#Cc1cc(CN(CC(=O)OC(C)(C)C)CC(=O)OC(C)(C)C)nc(CN(CC(=O)OC(C)(C)C)CC(=O)OC(C)(C)C)c1	47.8	51	6.03	26.6	33.9	44.8	> 100	23	49.3	> 100	26.3	–	15.1	11.4	6.33	9.15	–	–	–	–
O=C1NC2C(CCO)CC=C[C@H]2c2cc3c(cc21)OCO3 (stereo partly specified)	> 100	> 100	> 100	> 100	–	> 100	> 100	> 100	> 100	> 100	> 100	> 100	> 100	> 100	> 100	> 100	–	–	–	–
O=C(N/N=C(\c1nc2ccc(Cl)cc2[nH]c1=O)C(O)c1ccccc1Cl)c1ccncc1 (stereo unspecified)	> 100	> 100	> 100	> 100	> 100	> 100	> 100	> 100	> 100	> 100	> 100	> 100	> 100	> 100	> 100	> 100	–	–	–	–
CN1N=C2c3ccccc3CC[C@H]2C1c1cccc(O)c1 (stereo partly specified)	> 100	> 100	> 100	> 100	> 100	> 100	> 100	> 100	> 100	> 100	> 100	> 100	> 100	> 100	> 100	> 100	–	–	–	–
CCCc1c(C(=O)OCC)[nH]c(C(=O)CCC(=O)c2[nH]c(C(=O)OCC)c(CCC)c2C(=O)OCC)c1C(=O)OCC	> 100	> 100	> 100	> 100	> 100	> 100	> 100	> 100	> 100	> 100	> 100	> 100	> 100	> 100	> 100	> 100	–	–	–	–
COC1=CC(=O)C2C(C1=O)C(c1ccc(OC)c(OC)c1)[C@H]2C (stereo partly specified)	31.9	> 100	40.4	54.4	> 100	> 100	> 100	> 100	> 100	40.1	42.9	31.9	> 100	33.3	31.3	41.1	–	–	–	–
CCN(CC)CCCNc1ncc(C)c2c1c1ccc3c(O)cccc3c1n2C	2.19	16.6	2.64	4.64	4.31	36.6	5.04	3.15	6.87	18.2	4.82	2.28	3.17	3.06	1.84	31	3.79	33.8	3.42	2.16
CC(C)(C)C(=O)/C=C/c1cccc(Oc2ccccc2)c1	30.7	> 100	–	30.1	36.5	–	22.1	25.6	35.9	–	–	31	30	33.1	57.1	28.4	–	–	–	–
Cc1cn(C2CC(NC(=NCC3OC(n4cnc5c(N)ncnc54)CC3O)NC#N)C(CO)O2)c(=O)[nH]c1=O (stereo unspecified)	> 100	> 100	> 100	> 100	> 100	> 100	> 100	> 100	> 100	> 100	> 100	> 100	> 100	–	> 100	> 100	> 100	> 100	> 100	> 100
COC(=O)N/N=C(/Cc1occc(=O)c1O)C(=O)Nc1ccc([N+](=O)[O-])cc1[N+](=O)[O-]	> 100	> 100	> 100	> 100	> 100	> 100	> 100	> 100	> 100	–	> 100	> 100	> 100	> 100	> 100	> 100	–	–	–	–
O=C1OC(CS(=O)(=O)c2ccccc2)CC1O (stereo unspecified)	> 100	> 100	> 100	> 100	> 100	> 100	> 100	> 100	> 100	> 100	> 100	> 100	> 100	–	> 100	> 100	> 100	> 100	> 100	> 100
N#CC(c1ccccc1)N(CCOCCOCCN(C(=O)c1cccc2ccccc12)C(C#N)c1ccccc1)C(=O)c1cccc2ccccc12 (stereo unspecified)	> 100	> 100	> 100	> 100	> 100	> 100	> 100	> 100	> 100	> 100	> 100	> 100	> 100	–	> 100	> 100	> 100	> 100	> 100	> 100
C/C(=N/NC(N)=S)C(CN(C)C)C(C1=C(O)c2ccccc2OC1)c1ccccc1 (stereo unspecified)	> 100	> 100	> 100	> 100	> 100	> 100	> 100	> 100	> 100	> 100	> 100	> 100	> 100	> 100	> 100	> 100	–	–	–	–
C=C(CN)CO[Si](C)(C)C(C)(C)C	> 100	> 100	> 100	> 100	> 100	> 100	> 100	> 100	> 100	> 100	> 100	> 100	> 100	–	> 100	> 100	> 100	> 100	> 100	> 100
COc1ccc(C2S/C(=C\c3ccccc3)C(=O)N2NC(=O)Cc2ccccc2)cc1 (stereo unspecified)	> 100	> 100	> 100	> 100	–	> 100	> 100	> 100	–	–	> 100	> 100	–	> 100	> 100	> 100	–	–	–	–

— PubChem BioAssay (NCI)
